Drawing on ChEMBL document CHEMBL2074532, “P-glycoprotein increases the efflux of the androgen dihydrotestosterone and reduces androgen responsive gene activity in prostate tumor cells” (Prostate, 2004), this text covers Activity for two compounds.

This series concerns the target ATP-dependent translocase ABCB1 (Homo sapiens, UniProt P08183). Briefly: TP_TRANSPORTER: cell accumulation in P-gp transfected LNCaP cells. It counts as functional, cell-based.

Chain of ATP-dependent translocase ABCB1 (P08183 whole entry): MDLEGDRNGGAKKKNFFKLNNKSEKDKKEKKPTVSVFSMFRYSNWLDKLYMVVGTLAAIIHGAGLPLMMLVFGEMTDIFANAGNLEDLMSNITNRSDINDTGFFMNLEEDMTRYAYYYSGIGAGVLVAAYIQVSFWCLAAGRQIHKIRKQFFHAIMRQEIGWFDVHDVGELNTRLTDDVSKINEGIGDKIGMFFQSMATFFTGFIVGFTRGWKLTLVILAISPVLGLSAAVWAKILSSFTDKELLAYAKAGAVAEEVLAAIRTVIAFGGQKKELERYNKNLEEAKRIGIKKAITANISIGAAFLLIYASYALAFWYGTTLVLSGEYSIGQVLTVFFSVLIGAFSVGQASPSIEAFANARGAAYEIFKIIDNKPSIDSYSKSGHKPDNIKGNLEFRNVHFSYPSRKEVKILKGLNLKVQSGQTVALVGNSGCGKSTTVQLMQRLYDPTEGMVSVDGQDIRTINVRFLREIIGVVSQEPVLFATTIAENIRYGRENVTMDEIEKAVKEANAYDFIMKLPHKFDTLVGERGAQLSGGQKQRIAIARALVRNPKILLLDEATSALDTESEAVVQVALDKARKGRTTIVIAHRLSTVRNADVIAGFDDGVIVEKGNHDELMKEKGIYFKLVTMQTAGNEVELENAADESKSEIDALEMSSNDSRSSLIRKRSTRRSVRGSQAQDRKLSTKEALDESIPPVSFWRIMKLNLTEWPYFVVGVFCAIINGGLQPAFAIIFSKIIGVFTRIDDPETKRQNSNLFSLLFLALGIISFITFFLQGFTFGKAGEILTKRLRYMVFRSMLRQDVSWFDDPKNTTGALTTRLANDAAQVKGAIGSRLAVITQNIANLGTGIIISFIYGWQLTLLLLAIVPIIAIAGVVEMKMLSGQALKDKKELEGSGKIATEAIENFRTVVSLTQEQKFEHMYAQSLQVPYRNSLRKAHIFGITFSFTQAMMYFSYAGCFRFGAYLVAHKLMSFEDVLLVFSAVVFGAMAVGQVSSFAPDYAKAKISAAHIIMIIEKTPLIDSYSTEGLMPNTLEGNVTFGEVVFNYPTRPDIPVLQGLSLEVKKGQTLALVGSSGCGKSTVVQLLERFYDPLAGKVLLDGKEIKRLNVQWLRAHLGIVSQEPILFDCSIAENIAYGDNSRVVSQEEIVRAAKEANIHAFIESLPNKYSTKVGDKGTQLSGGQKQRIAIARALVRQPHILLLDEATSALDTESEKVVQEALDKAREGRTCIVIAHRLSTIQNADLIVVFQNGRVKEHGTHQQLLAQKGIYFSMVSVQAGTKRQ

As to `C[C@]12CCC(=O)C[C@@H]1CC[C@@H]1[C@@H]2CC[C@]2(C)[C@@H](O)CC[C@@H]12` [STANOLONE], the Activity result was “substrate [+]”.

Take `CC[C@]1(O)C[C@@H]2CN(CCc3c([nH]c4ccccc34)[C@@](C(=O)OC)(c3cc4c(cc3OC)N(C)[C@H]3[C@@](O)(C(=O)OC)[C@H](OC(C)=O)[C@]5(CC)C=CCN6CC[C@]43[C@@H]65)C2)C1` [VINBLASTINE]: the Activity entry was “substrate [+]”.
